Experimental data: patent US20140193827A1 (TEVA PHARMACEUTICAL INDUSTRIES, LTD., priority 2013, published 2014)

Tested on: GA-primed murine splenocytes
Assay: ANOVA-based pattern identification method
Type: cell-based, mouse
Excerpt: We sought to identify probes matching specific patterns of expression across experimental conditions using a technique that referred to as the ANOVA-based Pattern Identification Method.
To carry out the analysis in a general manner, we computed the 6 p-values required to do pairwise comparisons of all 4 conditions for all probes using the ANOVA1 function in MATLAB. We then identified sets of probes matching the desired pattern. In the example above, probes were identified as being only affected by PG if their 6 pairwise comparison pvalues matched the following pattern (pGA-PG<0.05, pPG-reference standard<0.05, pPG-Medium<0.05, pGAMedium>0.05, pGA-reference standard>0.05, preference standard-Medium>0.05).

[1] = DOWN IN generic ONLY, group mean

## glatiramer acetate [GA]
[1]
  PARP11 expression: 5.609
  PAX6 expression: 5.641
  PCSK2 expression: 5.653
  PDK2 expression: 5.937
  PHIP expression: 8.192
  PMS1 expression: 5.806
  PRICKLE2 expression: 5.859
  PTP4A2 expression: 8.952
  PTPN22 expression: 5.804
  R3HDM1 expression: 6.229
  RAB4A expression: 6.851
  RAB6B expression: 5.767
  RAB27A expression: 9.622
  RBM18 expression: 7.292
  RDH1 expression: 5.682
  RGS19 expression: 6.584
  RHBDF2 expression: 6.336
  RNF17 expression: 5.538
  RNF150 expression: 5.93
  RPL32 expression: 13.81
  RTN3 expression: 5.897
  RgenericRIP1 expression: 5.935
  SCNN1B expression: 5.616
  SEC1 expression: 5.75
  SEMA3E expression: 5.601
  SH3BP2 expression: 10.95
  SOX2 expression: 5.674
  SPCS2 expression: 5.97
  SPDYB expression: 5.641
  SPN expression: 5.889
  SPRR2K expression: 5.662
  STAT4 expression: 5.836
  SVNGR4 expression: 5.647
  SYT10 expression: 5.717
  TATDN3 expression: 5.694
  TCFAP2C expression: 5.821
  TDH expression: 5.601
  TMEFF2 expression: 5.65
  TMEM146 expression: 6.132
  TMPO expression: 8.533
  TRPM1 expression: 5.694
  TRPV3 expression: 5.597
  TSC1 expression: 5.984
  TSSC1 expression: 7.729
  TYKI expression: 7.673
  UGDH expression: 5.86
  UGT2A1 expression: 5.61
  UTX expression: 9.817
  V1RD9 expression: 5.697
  ZAP70 expression: 7.106
  ZBTB44 expression: 5.642
  ZCCHC11 expression: 5.935
  ZFP120 expression: 5.536
  ZFP212 expression: 6.401
  ZSCAN2 expression: 5.813
  control_ILMN_1378612 expression: 5.7
  control_ILMN_1378679 expression: 5.604
  control_ILMN_1378774 expression: 5.707
  control_ILMN_1378775 expression: 5.662
  control_ILMN_1379152 expression: 5.629
  control_ILMN_1379205 expression: 5.72
  genericC expression: 5.676
DOWN IN generic ONLY, group mean, first USP47 line
  USP47 expression: 6.068
DOWN IN generic ONLY, group mean, second USP47 line
  USP47 expression: 6.377
UP IN GA AND REF ONLY
  1700025G04RIK expression level: 7.268
  1700027N10RIK expression level: 6.448
  1810013L24RIK expression level: 7.658
  2310016C16RIK expression level: 5.823
  2500002A22RIK expression level: 6.674
  2610017G09RIK expression level: 5.839
  2810008M24RIK expression level: 9.714
  2810410P22RIK expression level: 7.979
  3202002H23RIK expression level: 6.527
  4930404F20RIK expression level: 6.759
  4930422G04RIK expression level: 5.79
  4930539E08RIK expression level: 6.255
  4932413O14RIK expression level: 5.732
  5830457O10RIK expression level: 6.825
  8030402P03RIK expression level: 7.776
  9430077D24RIK expression level: 7.091
  A630098G22RIK expression level: 7.124
  A830083H19RIK expression level: 7.635
  A930014D08RIK expression level: 5.703
  ACTN4 expression level: 6.609
  ALS2CL expression level: 7.393
  AP1B1 expression level: 10.95
  ARHGAP25 expression level: 10.16
  ARL1 expression level: 9.913
  ARL5A expression level: 8.028
  BAT2D expression level: 5.932
  BAZ1B expression level: 5.676
  BCL11B expression level: 7.609
  C130079K02RIK expression level: 7.532
  C920025C15RIK expression level: 6.929
  CBFB expression level: 6.648
  CCR4 expression level: 5.821
  CD226 expression level: 6.995
  CHIC2 expression level: 8.484
  CLCN3 expression level: 8.431
  COX7A1 expression level: 7.161
  CSF1 expression level: 5.383
  CXCR6 expression level: 6.834
  CYB5 expression level: 11.21
  D4ERTD22E expression level: 11.37
  D6WSU163E expression level: 6.582
  D230021E06RIK expression level: 7.605
  D630011N09RIK expression level: 5.625
  D630022O22RIK expression level: 6.33
  DCK expression level: 6.716
  DCUN1D5 expression level: 9.535
  DHX32 expression level: 8.979
  DMBT1 expression level: 5.787
  DTYMK expression level: 10.17
  EG386506 expression level: 5.743
  EG666756 expression level: 10.78
  EIF3B expression level: 6.383
  EIF4E3 expression level: 8.882
  ELAC2 expression level: 6.351
  ELF1 expression level: 10.44
  EP5TI1 expression level: 8.281
  ETS1 expression level: 7.811
  F830048D03RIK expression level: 6.799
  FANCA expression level: 5.606
  FBXO33 expression level: 8.898
  FEM1C expression level: 8.076
  FERD3L expression level: 5.887
  FYB expression level: 8.25
  GNL3L expression level: 7.689
  GPC3 expression level: 5.696
  GPI1 expression level: 11.7829
  GREM2 expression level: 6.036
  GTF3C5 expression level: 5.928
  GTL7 expression level: 7.434
  H2-T23 expression level: 10.78
  H2AFZ expression level: 11.93
  HEATR3 expression level: 5.853
  HIST1H2AG expression level: 10.07
  HIST1H2AK expression level: 12.78
  HNRNPK expression level: 10.05
  IL1F10 expression level: 6.065
  INPP4B expression level: 6.314
  KLRA1 expression level: 5.834
  KRT25 expression level: 5.8
  LOC235279 expression level: 5.818
  LOC244219 expression level: 5.958
  LOC331243 expression level: 5.641
  LOC380707 expression level: 10.02
  LOC381093 expression level: 5.885
  LOC383306 expression level: 5.921
  LOC383433 expression level: 5.667
  LOC383706 expression level: 8.36
  LOC384585 expression level: 5.764
  LOC384990 expression level: 5.909
  LOC386161 expression level: 5.652
  LOC628101 expression level: 6.566
  LOC667005 expression level: 7.02
  LOC100040244 expression level: 7.257
  LOC100040854 expression level: 5.619
  LOC100041450 expression level: 6.953
  LOC100043391 expression level: 14.29
  LOC100044190 expression level: 10.67
  LOC100046320 expression level: 7.704
  LOC100047009 expression level: 6.027
  LOC100048816 expression level: 5.928
  LSG1 expression level: 7.278
  MAD2L1BP expression level: 9.971
  MIER2 expression level: 5.885
  MX2 expression level: 8.083
  MYNN expression level: 5.819
  NCDN expression level: 5.87
  NEO1 expression level: 6.159
  NPC2 expression level: 9.575
  NUDCD2 expression level: 7.102
  OLFR701 expression level: 5.738
  OS9 expression level: 9.621
  OTTMUSG00000005523 expression level: 6.96
  PARP14 expression level: 11.13
  PCDHGC5 expression level: 6.075
  PDIA2 expression level: 5.846
  PDLIM1 expression level: 9.528
  PIBF1 expression level: 6.957
  PIGN expression level: 5.83
  PJA1 expression level: 6.736
  PK3 expression level: 6.316
  PLEKHF2 expression level: 8.247
  PLXNC1 expression level: 6.506
  PPP1CB expression level: 7.717
  PPP2R5C expression level: 10.04
  PSEN2 expression level: 5.995
  PTPN1 expression level: 9.292
  PUM2 expression level: 8.717
  RAB6 expression level: 7.499
  RAB33A expression level: 6.093
  RBM14 expression level: 6.157
  RN185 expression level: 9.959
  RNF8 expression level: 6.852
  RNF19A expression level: 5.962
  RNGTT expression level: 6.302
  RPL37 expression level: 5.765
  SAMHD1 expression level: 12.05
  SCL0002368.1_75 expression level: 9.053
  SELP expression level: 6.569
  SLC30A8 expression level: 5.652
  SLCO3A1 expression level: 6.151
  SLFN9 expression level: 5.598
  SPNB2 expression level: 5.753
  STAT3 expression level: 11.07
  STIL expression level: 5.727
  TELO2 expression level: 5.873
  TMPO expression level: 8.63
  TNP2 expression level: 5.959
  TOP2A expression level: 7.085
  TOR1A expression level: 7.512
  TPM4 expression level: 7.481
  TRAPPC2 expression level: 5.833
  TRMT2A expression level: 6.694
  TSPAN14 expression level: 9.848
  TTLL4 expression level: 5.973
  UBE2Z expression level: 6.169
  USF1 expression level: 6.915
  V1RD18 expression level: 5.691
  VMN2R81 expression level: 5.992
  VMN2R89 expression level: 6.242
  VPS37B expression level: 10.56
  WAPAL expression level: 6.423
  WDR45L expression level: 7.365
  ZDHHC21 expression level: 8.562
  ZFP277 expression level: 9.951
  ZFP281 expression level: 8.974
  ZFP800 expression level: 6.783
  ZNF24 expression level: 6.171
  ZWILCH expression level: 6.29
  ZZZ3 expression level: 6.181
UP IN generic ONLY
  5YNGR1 expression: 5.954
  1200003C05RIK expression: 9.103
  1200011M11RIK expression: 6.322
  1700021P22RIK expression: 6.037
  1700029G01RIK expression: 6.738
  1700063H04RIK expression: 5.82
  2210010L05RIK expression: 5.598
  2310046A06RIK expression: 5.634
  2310051M13RIK expression: 5.609
  2600005J22RIK expression: 5.732
  2610209A20RIK expression: 6.008
  2810046M22RIK expression: 5.995
  2810453I06RIK expression: 8.506
  2900090M10RIK expression: 5.695
  3110070M22RIK expression: 6.16
  4930430K04RIK expression: 5.499
  4930432K21RIK expression: 6.593
  4930471I01RIK expression: 5.854
  4930481A15RIK expression: 5.879
  4930543G11RIK expression: 5.775
